We go through 4 molecules from BindingDB's records for doi:10.1111/j.1747-0285.2009.00924.x (Nankai University, 2010).

The test deals with T1, Ketol-acid reductoisomerase (NADP(+)) (Escherichia coli (strain K12), UniProt P05793).
T1 sequence (P05793 whole entry): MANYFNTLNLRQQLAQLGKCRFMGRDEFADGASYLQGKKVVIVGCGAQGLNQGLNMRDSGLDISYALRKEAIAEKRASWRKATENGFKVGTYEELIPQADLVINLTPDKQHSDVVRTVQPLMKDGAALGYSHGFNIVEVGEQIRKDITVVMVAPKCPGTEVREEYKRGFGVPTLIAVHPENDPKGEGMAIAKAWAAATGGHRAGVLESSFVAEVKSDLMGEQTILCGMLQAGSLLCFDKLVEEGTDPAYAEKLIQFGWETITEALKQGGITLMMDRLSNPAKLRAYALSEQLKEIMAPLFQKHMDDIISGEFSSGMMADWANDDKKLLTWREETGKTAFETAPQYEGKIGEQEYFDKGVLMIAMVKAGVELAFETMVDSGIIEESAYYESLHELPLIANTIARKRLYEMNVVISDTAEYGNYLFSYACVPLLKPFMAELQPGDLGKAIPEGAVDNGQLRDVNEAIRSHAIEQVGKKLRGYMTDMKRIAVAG
As to the kind of experiment: Enzyme Inhibition Assay. The note with it: pH 8; 30 °C. Here is the method:
Inhibition of E. coli KARI (ketol-acid reductoisomerase) is time dependent, and activity was measured by the decrease in A340 at 30 C in solutions containing 0.2 mM […], 1 mM MgCl2, substrate 2-acetolactate and inhibitor in 0.1 M phosphate buffer at pH 8.0.

In turn, `O=C(O)C1(C(=O)O)CC1` [Cyclopropane, 3] gave a Ki of 76.6 µM. That is a double-digit micromolar value.
Then `N#CC1(C(=O)O)CC1` [Cyclopropane, 4], with 95.3 µM.
For the molecule `NC(=O)C1(C(=O)O)CC1` [Cyclopropane, 5], the affinity, expressed as Ki, was 31.2 µM. Compared with the last molecule, the Ki is about 3.1-fold lower.
Then `CC(C)N(O)C(=O)C(=O)O` [N-hydroxy-N-isopropyloxamate, IpOHA], with 2.75 µM.

The Ki is the dissociation constant of the complex between target and ligand, obtained from inhibition or displacement. Low values mean a stronger hold on the target, high ones a looser hold on the target.
